Data on one compound can be found in publication PMC12352625, “Double crossed? Structural and computational studies of an unusually crosslinked haem in Methylococcus capsulatus cytochrome P460” (Chemical Science, 2025).

In this assay the target is T1, McP460 (cytochrome P460 from Methylococcus capsulatus (Bath)) (Methylococcus capsulatus, UniProt G1UBD9).
T1 construct: gene MCA0524; recombinant from E. coli; covalent c-type P460 haem (Cys140, Cys143, His144, Lys78)
T1 sequence (G1UBD9 18-161): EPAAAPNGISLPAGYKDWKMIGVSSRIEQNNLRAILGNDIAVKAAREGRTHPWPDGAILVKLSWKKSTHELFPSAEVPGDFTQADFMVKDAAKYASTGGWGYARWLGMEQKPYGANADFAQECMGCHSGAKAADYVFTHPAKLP
In words: DCPIP reduction assay; N2O by GC-MS; nitrite by Griess assay. In kind it is biochemical. As to conditions: 5 uM enzyme, 6 uM PMS, 2 mM [Ru(NH3)6]Cl3, 0-1000 uM hydroxylamine for product assays; anaerobic or aerobic.

`NO` [hydroxylamine]: the “DCPIP reduction assay; N2O by GC-MS; nitrite by Griess assay” value is “assays were carried out to assess the protein's ability to oxidise hydroxylamine, and product formation”.
